Test results: publication PMC12516686, “Design of 2‑Aminobenzothiazole Derivatives Targeting Trypanosomatid PTR1 by a Multidisciplinary Fragment Hybridization Approach” (Journal of Medicinal Chemistry, 2025)

System: THP-1-derived macrophages
Experiment: Cytotoxicity assay (MTT) on THP-1-derived macrophages
Assay type: cell-based, Human
Conditions: THP-1 CC50 vs T. brucei EC50
Protocol: Human leukemia cell line THP-1 (ATCC TIB202) cells were cultured in RPMI-1640 medium supplemented with 10% heat-inactivated fetal bovine serum (FBS), 2 mM L-glutamine, 100 IU/mL penicillin/streptomycin, and 20 mM HEPES. The cell line was maintained in a humidified incubator at 37 °C with 5% CO2. Subcultures were performed every 3 days in 20 mL of media at a concentration of 2 × 10^5 cells/mL in a T75 flask. All cell culture reagents were purchased from Lonza Bioscience (Morrisville, NC).
The cytotoxicity of the compounds on THP-1-derived macrophages was assessed using the colorimetric MTT assay (3-(4,5-dimethylthiazol-2-yl)-2,5-diphenyl tetrazolium bromide) as described elsewhere. THP-1 cells were suspended in RPMI complete medium at a density of 1 × 10^6 cells/mL, and 100 μL/well was seeded in a 96-well plate. The cells were differentiated into macrophages by adding 40 ng/mL of phorbol-myristate 13-acetate (PMA, Sigma, Saint Louis, MI, USA) for 24 h, followed by replacement with fresh medium for another 24 h. Subsequently, the cells were incubated with 100 μL of compounds, ranging from 100 to 12.5 μM, diluted in RPMI complete medium. Each condition was tested in triplicate. After 72 h of incubation at 37 °C with 5% CO2, the medium was removed, and 200 μL of 0.5 mg/mL MTT solution diluted in RPMI was added. The plates were incubated for an additional 4 h, after which 160 μL of the media was removed and replaced with 160 μL of 2-propanol. Absorbance was read at 570 nm using a Synergy 2 Multi-Mode Reader (Biotek, Winooski, VT, USA). Cytotoxicity was evaluated by presenting the CC50 (the concentration of the drug that reduces cell viability by 50%) interval or by determining the CC50 value through nonlinear regression analysis using GraphPad Prism version 8.1.1 for Windows (GraphPad Software, San Diego, CA, USA). Results represent the average of at least three independent experiments.

Question: For Nc1nc2ccc(C(=O)NCCc3ccc(Cl)c(Cl)c3)cc2s1 [Compound 1a, 2-amino-N-(3,4-dichlorophenethyl)benzo[d]thiazole-6-carboxamide], which “Selectivity index toward THP-1 cells” value is on record?
Answer: over 16

Question: Which “Selectivity index toward THP-1 cells” value does the source give for Nc1nc2ccc(C(=O)N(CCc3ccc(Cl)c(Cl)c3)C3CC3)cc2s1 [Compound 1b, 2-amino-N-cyclopropyl-N-(3,4-dichlorophenethyl)benzo[d]thiazole-6-carboxamide] here?
Answer: 5−10
